# Assays:
# Test in all cases: Test C preemergence
# Assay type in all cases: in vivo
# [1] = test system: yellow nutsedge (Cyperus esculentus); details: Cyperus, pre-emergence, 336 h, preemergence, scale 0 to 100, read-out: Plant response rating, Nutsedge, Yellow
# In short: (§1)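 Greenhouse test; preemergence to seeds in loam/sand soil, or postemergence spray to 2-18 cm, 1- to 4-leaf plants in peat/vermiculite medium; compound in non-phytotoxic solvent plus surfactant. Visual rating vs controls at 13-15 d, 0 = no effect, 100 = complete control.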
# corn (Zea mays) = details: Zea mays, pre-emergence, 336 h, preemergence, scale 0 to 100
# In short: as §1
# [2] = test system: large (Lg) crabgrass (Digitaria sanguinalis); details: Digitaria sanguinalis, pre-emergence, 336 h, preemergence, scale 0 to 100, read-out: Plant response rating, Crabgrass, Large
# In short: as §1
# soybean (Glycine max) = details: Glycine max, pre-emergence, preemergence, scale 0 to 100, read-out: Plant response rating, Soybean
# In short: as §1
# [3] = test system: giant foxtail (Setaria faberii); details: Setaria faberi, pre-emergence, 336 h, preemergence, scale 0 to 100, read-out: Plant response rating, Foxtail, Giant
# In short: as §1
# [4] = test system: lambsquarters (Chenopodium album); details: Chenopodium album, pre-emergence, 336 h, preemergence, scale 0 to 100, read-out: Plant response rating, Lambsquarters
# In short: as §1
# [5] = test system: barnyardgrass (Echinochloa crus-galli); details: Echinochloa crus-galli, pre-emergence, preemergence, scale 0 to 100, read-out: Plant response rating, Barnyardgrass
# In short: as §1
# [6] = test system: pigweed (Amaranthus retroflexus); details: Amaranthus retroflexus, pre-emergence, 336 h, preemergence, scale 0 to 100, read-out: Plant response rating, Pigweed
# In short: as §1
# [7] = test system: Italian ryegrass (Lolium multiflorum); details: Lolium multiflorum, pre-emergence, 336 h, preemergence, scale 0 to 100, read-out: Plant response rating, Ryegrass, Italian
# In short: as §1
# [8] = test system: winter wheat (Triticum aestivum); details: Triticum aestivum, pre-emergence, 336 h, preemergence, scale 0 to 100, read-out: Plant response rating, Wheat
# In short: as §1
# [9] = test system: johnsongrass (Sorghum halepense); details: Sorghum halepense, pre-emergence, 336 h, preemergence, scale 0 to 100, read-out: Plant response rating, Johnsongrass
# In short: as §1
# [10] = test system: blackgrass (Alopecurus myosuroides); details: Alopecurus myosuroides, pre-emergence, 336 h, preemergence, scale 0 to 100, read-out: Plant response rating, Blackgrass
# In short: as §1
# [11] = test system: ragweed (common ragweed, Ambrosia elatior); details: Ambrosia artemisiifolia, pre-emergence, 336 h, preemergence, scale 0 to 100, read-out: Plant response rating, Ragweed
# In short: as §1
# [12] = test system: velvetleaf (Abutilon theophrasti); details: Abutilon theophrasti, pre-emergence, preemergence, scale 0 to 100, read-out: Plant response rating, Velvetleaf
# In short: as §1
smiles,measurement,setting,value
"N#Cc1cccc(Oc2ncc(Cl)cn2)c1Oc1ncc(Cl)cn1 [Compound 3, 2,3-bis[(5-chloro-2-pyrimidinyl)oxy]benzonitrile]",pest or weed control at 31 g/ha,[1]; 31 g ai/ha,5%
same,pest or weed control at 62 g/ha,[1]; 62 g ai/ha,15%
same,pest or weed control at 125 g/ha,[1]; 125 g ai/ha,55%
same,"Corn plant response rating (crop injury, 0 = no effect, 100 = complete kill) at 31 g/ha",corn (Zea mays); 31 g ai/ha,20%
same,"Corn plant response rating (crop injury, 0 = no effect, 100 = complete kill) at 62 g/ha",corn (Zea mays); 62 g ai/ha,70%
same,"Corn plant response rating (crop injury, 0 = no effect, 100 = complete kill) at 125 g/ha",corn (Zea mays); 125 g ai/ha,85%
same,pest or weed control at 31 g/ha,[2]; 31 g ai/ha,100%
same,pest or weed control at 62 g/ha,[2]; 62 g ai/ha,100%
same,pest or weed control at 125 g/ha,[2]; 125 g ai/ha,100%
same,plant injury at 31 g/ha,soybean (Glycine max); 31 g ai/ha,40%
same,plant injury at 62 g/ha,soybean (Glycine max); 62 g ai/ha,40%
same,plant injury at 125 g/ha,soybean (Glycine max); 125 g ai/ha,85%
same,plant injury at 250 g/ha,soybean (Glycine max); 250 g ai/ha,95%
same,pest or weed control at 31 g/ha,[3]; 31 g ai/ha,100%
same,pest or weed control at 62 g/ha,[3]; 62 g ai/ha,100%
same,pest or weed control at 125 g/ha,[3]; 125 g ai/ha,100%
same,pest or weed control at 31 g/ha,[4]; 31 g ai/ha,100%
same,pest or weed control at 62 g/ha,[4]; 62 g ai/ha,100%
same,pest or weed control at 125 g/ha,[4]; 125 g ai/ha,100%
same,pest or weed control at 31 g/ha,[5]; 31 g ai/ha,80%
same,pest or weed control at 62 g/ha,[5]; 62 g ai/ha,100%
same,pest or weed control at 125 g/ha,[5]; 125 g ai/ha,100%
same,pest or weed control at 250 g/ha,[5]; 250 g ai/ha,100%
same,pest or weed control at 31 g/ha,[6]; 31 g ai/ha,100%
same,pest or weed control at 62 g/ha,[6]; 62 g ai/ha,100%
same,pest or weed control at 125 g/ha,[6]; 125 g ai/ha,100%
same,pest or weed control at 31 g/ha,[7]; 31 g ai/ha,5%
same,pest or weed control at 62 g/ha,[7]; 62 g ai/ha,35%
same,pest or weed control at 125 g/ha,[7]; 125 g ai/ha,90%
same,pest or weed control at 250 g/ha,[7]; 250 g ai/ha,90%
same,plant injury at 31 g/ha,[8]; 31 g ai/ha,5%
same,plant injury at 62 g/ha,[8]; 62 g ai/ha,45%
same,plant injury at 125 g/ha,[8]; 125 g ai/ha,90%
same,plant injury at 250 g/ha,[8]; 250 g ai/ha,90%
same,pest or weed control at 31 g/ha,[9]; 31 g ai/ha,45%
same,pest or weed control at 62 g/ha,[9]; 62 g ai/ha,75%
same,pest or weed control at 125 g/ha,[9]; 125 g ai/ha,100%
same,pest or weed control at 31 g/ha,[10]; 31 g ai/ha,70%
same,pest or weed control at 62 g/ha,[10]; 62 g ai/ha,90%
same,pest or weed control at 125 g/ha,[10]; 125 g ai/ha,90%
same,pest or weed control at 31 g/ha,[11]; 31 g ai/ha,90%
same,pest or weed control at 125 g/ha,[11]; 125 g ai/ha,90%
same,pest or weed control at 250 g/ha,[11]; 250 g ai/ha,100%
same,pest or weed control at 31 g/ha,[12]; 31 g ai/ha,80%
same,pest or weed control at 62 g/ha,[12]; 62 g ai/ha,100%
same,pest or weed control at 125 g/ha,[12]; 125 g ai/ha,100%
same,pest or weed control at 250 g/ha,[12]; 250 g ai/ha,100%

# Source: patent US20170190671A1, “BIS(ARYL)CATECHOL DERIVATIVES AS HERBICIDES” (E I DU PONT DE NEMOURS AND COMPANY, priority 2014, published 2017)
